# In ChEMBL document CHEMBL6078713, “Synthesis and mechanistic studies of 4-aminoquinoline-Isatin molecular hybrids and Schiff's bases as promising antimicrobial agents” (Eur J Med Chem, 2025):
# The source made the active and inactive calls. No cut-off for these calls is given here.
# Legend:
# [1] = test system: Staphylococcus aureus; assay: Antibacterial activity against Staphylococcus aureus MTCC 902 assessed as inhibition of bacterial growth incubated overnight by serial dilution based spectrophotometer; type: functional
# [2] = test system: Pseudomonas aeruginosa; assay: Antibacterial activity against Pseudomonas aeruginosa MTCC 2453 assessed as inhibition of bacterial growth incubated overnight by serial dilution based spectrophotometer; type: functional
# [3] = test system: Salmonella typhi; assay: Ratio of MBC for antibacterial activity against Salmonella typhi to MIC for bactericidal activity against Salmonella typhi; type: functional, Salmonella enterica subsp. enterica serovar Typhi
# [4] = test system: Enterococcus faecalis; assay: Antibacterial activity against Enterococcus faecalis MTCC 439 assessed as diameter of zone of inhibition at 0.5 times MIC incubated overnight by disk diffusion method; type: functional
# [5] = test system: Bacillus subtilis; assay: Antibacterial activity against Bacillus subtilis MTCC 736 assessed as diameter of zone of inhibition at 0.5 times MIC incubated overnight by disk diffusion method; type: functional
# [6] = test system: Staphylococcus aureus; assay: Antibacterial activity against Staphylococcus aureus MTCC 902 assessed as diameter of zone of inhibition at 0.5 times MIC incubated overnight by disk diffusion method; type: functional
# [7] = test system: Pseudomonas aeruginosa; assay: Antibacterial activity against Pseudomonas aeruginosa MTCC 2453 assessed as diameter of zone of inhibition at 0.5 times MIC incubated overnight by disk diffusion method; type: functional
# [8] = test system: Salmonella typhi; assay: Antibacterial activity against Salmonella typhi assessed as diameter of zone of inhibition at 0.5 times MIC incubated overnight by disk diffusion method; type: functional, Salmonella enterica subsp. enterica serovar Typhi
# [9] = test system: Bacillus subtilis; assay: Antibacterial activity against Bacillus subtilis MTCC 736 assessed as diameter of zone of inhibition at 2 times MIC incubated overnight by disk diffusion method; type: functional
# [10] = test system: Salmonella typhi; assay: Antibacterial activity against Salmonella typhi assessed as diameter of zone of inhibition at 2 times MIC incubated overnight by disk diffusion method; type: functional, Salmonella enterica subsp. enterica serovar Typhi
# [11] = test system: Bacillus subtilis; assay: Synergistic antibacterial activity against Bacillus subtilis MTCC 736 assessed as fractional inhibitory concentration index incubated overnight in presence of ciprofloxacin by microdilution checkerboard assay; type: functional
# [12] = test system: Staphylococcus aureus; assay: Synergistic antibacterial activity against Staphylococcus aureus MTCC 902 assessed as fractional inhibitory concentration index incubated overnight in presence of ciprofloxacin by microdilution checkerboard assay; type: functional
# [13] = test system: Pseudomonas aeruginosa; assay: Synergistic antibacterial activity against Pseudomonas aeruginosa MTCC 2453 assessed as fractional inhibitory concentration index incubated overnight in presence of ciprofloxacin by microdilution checkerboard assay; type: functional
# [14] = test system: Escherichia coli; assay: Antibacterial activity against Escherichia coli clinical isolate ECJH1 assessed as diameter of zone of inhibition by disk diffusion assay; type: functional
# [15] = test system: Escherichia coli; assay: Antibacterial activity against Escherichia coli clinical isolate ECJH2 assessed as diameter of zone of inhibition by disk diffusion assay; type: functional
# [16] = test system: Escherichia coli; assay: Antibacterial activity against Escherichia coli clinical isolate ECJH3 assessed as diameter of zone of inhibition by disk diffusion assay; type: functional
# [17] = test system: Escherichia coli; assay: Antibacterial activity against Escherichia coli clinical isolate ECJH4 assessed as diameter of zone of inhibition by disk diffusion assay; type: functional
# [18] = test system: Escherichia coli; assay: Antibacterial activity against Escherichia coli clinical isolate ECJH5 assessed as diameter of zone of inhibition by disk diffusion assay; type: functional
# [19] = test system: Escherichia coli; assay: Antibacterial activity against Escherichia coli clinical isolate ECJH6 assessed as diameter of zone of inhibition by disk diffusion assay; type: functional
# [20] = test system: Escherichia coli; assay: Antibacterial activity against Escherichia coli clinical isolate ECJH7 assessed as diameter of zone of inhibition by disk diffusion assay; type: functional
# [21] = test system: Escherichia coli; assay: Antibacterial activity against Escherichia coli clinical isolate ECJH8 assessed as diameter of zone of inhibition by disk diffusion assay; type: functional
# [22] = test system: Escherichia coli; assay: Antibacterial activity against Escherichia coli clinical isolate ECJH9 assessed as diameter of zone of inhibition by disk diffusion assay; type: functional
# [23] = test system: Escherichia coli; assay: Antibacterial activity against Escherichia coli clinical isolate ECJH10 assessed as diameter of zone of inhibition by disk diffusion assay; type: functional
# [24] = test system: Escherichia coli; assay: Antibacterial activity against Escherichia coli clinical isolate ECJH11 assessed as diameter of zone of inhibition by disk diffusion assay; type: functional
# [25] = test system: Escherichia coli; assay: Antibacterial activity against Escherichia coli clinical isolate ECJH12 assessed as diameter of zone of inhibition by disk diffusion assay; type: functional
# [26] = test system: Escherichia coli; assay: Antibacterial activity against Escherichia coli clinical isolate ECJH13 assessed as diameter of zone of inhibition by disk diffusion assay; type: functional
# [27] = test system: Escherichia coli; assay: Antibacterial activity against Escherichia coli clinical isolate ECJH14 assessed as diameter of zone of inhibition by disk diffusion assay; type: functional
# [28] = test system: Escherichia coli; assay: Antibacterial activity against Escherichia coli clinical isolate ECJH15 assessed as diameter of zone of inhibition by disk diffusion assay; type: functional
# [29] = test system: Escherichia coli; assay: Antibacterial activity against Escherichia coli clinical isolate ECJH16 assessed as diameter of zone of inhibition by disk diffusion assay; type: functional
# [30] = test system: Escherichia coli; assay: Antibacterial activity against Escherichia coli clinical isolate ECJH17 assessed as diameter of zone of inhibition by disk diffusion assay; type: functional
# [31] = test system: Escherichia coli; assay: Antibacterial activity against Escherichia coli clinical isolate ECJH18 assessed as diameter of zone of inhibition by disk diffusion assay; type: functional
# [32] = test system: Escherichia coli; assay: Antibacterial activity against Escherichia coli clinical isolate ECJH19 assessed as diameter of zone of inhibition by disk diffusion assay; type: functional
# [33] = test system: Escherichia coli; assay: Antibacterial activity against Escherichia coli clinical isolate ECJH20 assessed as diameter of zone of inhibition by disk diffusion assay; type: functional
# [34] = test system: Escherichia coli; assay: Antibacterial activity against Escherichia coli clinical isolate ECJH21 assessed as diameter of zone of inhibition by disk diffusion assay; type: functional
# [35] = test system: Escherichia coli; assay: Antibacterial activity against Escherichia coli clinical isolate ECJH22 assessed as diameter of zone of inhibition by disk diffusion assay; type: functional
# [36] = test system: Escherichia coli; assay: Antibacterial activity against Escherichia coli clinical isolate ECJH23 assessed as diameter of zone of inhibition by disk diffusion assay; type: functional
# [37] = test system: Escherichia coli; assay: Antibacterial activity against Escherichia coli clinical isolate ECJH24 assessed as diameter of zone of inhibition by disk diffusion assay; type: functional
# [38] = test system: Escherichia coli; assay: Antibacterial activity against Escherichia coli clinical isolate ECJH25 assessed as diameter of zone of inhibition by disk diffusion assay; type: functional
# [39] = test system: Staphylococcus aureus; assay: Bacteriostatic activity against Staphylococcus aureus MTCC 902 assessed as reduction in bacterial growth at 0.5 to 2 times MIC measured upto 24 hrs by absorbance based assay; type: functional, organism-based
# [40] = Hemolytic activity in human RBC assessed as hemolysis upto 500 ug/ml incubated for 1 hr by absorbance based analysis; type: toxicity, cell-based, Erythrocyte; conditions: red blood cells (RBC), up to 500 µg/mL, read-out: Activity
# [41] = Hemolytic activity in human RBC assessed as hemolysis at 1000 ug/ml incubated for 1 hr by absorbance based analysis; type: toxicity, cell-based, Erythrocyte; conditions: red blood cells (RBC), at 1000 µg/mL, read-out: Activity
# [42] = test system: Enterococcus faecalis; assay: Antibacterial activity against Enterococcus faecalis MTCC 439 assessed as inhibition of bacterial growth at 200 ug/ml incubated overnight by spectrophotometry relative to control; type: functional
# [43] = test system: Bacillus subtilis; assay: Antibacterial activity against Bacillus subtilis MTCC 736 assessed as inhibition of bacterial growth at 200 ug/ml incubated overnight by spectrophotometry relative to control; type: functional
# [44] = test system: Staphylococcus aureus; assay: Antibacterial activity against Staphylococcus aureus MTCC 902 assessed as inhibition of bacterial growth at 200 ug/ml incubated overnight by spectrophotometry relative to control; type: functional
# [45] = test system: Pseudomonas aeruginosa; assay: Antibacterial activity against Pseudomonas aeruginosa MTCC 2453 assessed as inhibition of bacterial growth at 200 ug/ml incubated overnight by spectrophotometry relative to control; type: functional
smiles,measurement,setting,value
O=[N+]([O-])c1ccccc1/C=N/CCNc1ccnc2cc(Cl)ccc12,MIC,[1],256 µg/mL
same,MIC,[2],128 µg/mL
same,Ratio,[3],1
same,diameter of the inhibition zone (DIZ),[4],9 mm
same,diameter of the inhibition zone (DIZ),[5],8 mm
same,diameter of the inhibition zone (DIZ),[6],8 mm
same,diameter of the inhibition zone (DIZ),[7],7 mm
same,diameter of the inhibition zone (DIZ),[8],6 mm
same,diameter of the inhibition zone (DIZ),[9],11 mm
same,diameter of the inhibition zone (DIZ),[10],8 mm
same,fractional inhibitory concentration index (FICI),[11],0.5
same,fractional inhibitory concentration index (FICI),[12],1.25
same,fractional inhibitory concentration index (FICI),[13],1.5
same,diameter of the inhibition zone (DIZ),[14],11 mm
same,diameter of the inhibition zone (DIZ),[15],11 mm
same,diameter of the inhibition zone (DIZ),[16],10 mm
same,diameter of the inhibition zone (DIZ),[17],13 mm
same,diameter of the inhibition zone (DIZ),[18],12 mm
same,diameter of the inhibition zone (DIZ),[19],10 mm
same,diameter of the inhibition zone (DIZ),[20],10 mm
same,diameter of the inhibition zone (DIZ),[21],9 mm
same,diameter of the inhibition zone (DIZ),[22],10 mm
same,diameter of the inhibition zone (DIZ),[23],11 mm
same,diameter of the inhibition zone (DIZ),[24],11 mm
same,diameter of the inhibition zone (DIZ),[25],12 mm
same,diameter of the inhibition zone (DIZ),[26],11 mm
same,diameter of the inhibition zone (DIZ),[27],12 mm
same,diameter of the inhibition zone (DIZ),[28],11 mm
same,diameter of the inhibition zone (DIZ),[29],10 mm
same,diameter of the inhibition zone (DIZ),[30],8 mm
same,diameter of the inhibition zone (DIZ),[31],11 mm
same,diameter of the inhibition zone (DIZ),[32],10 mm
same,diameter of the inhibition zone (DIZ),[33],10 mm
same,diameter of the inhibition zone (DIZ),[34],8 mm
same,diameter of the inhibition zone (DIZ),[35],9 mm
same,diameter of the inhibition zone (DIZ),[36],11 mm
same,diameter of the inhibition zone (DIZ),[37],13 mm
same,diameter of the inhibition zone (DIZ),[38],11 mm
same,Activity,[39],Active
same,hemolysis at 1 h,[40],< 10%
same,"hemolysis at 1 h, 1000 ug/ml",[41],< 20%
Clc1ccc2c(NCC/N=C/c3ccc4ccccc4n3)ccnc2c1,MIC,[1],512 µg/mL
same,MIC,[2],256 µg/mL
same,Ratio,[3],1
same,diameter of the inhibition zone (DIZ),[4],7 mm
same,diameter of the inhibition zone (DIZ),[8],9 mm
same,diameter of the inhibition zone (DIZ),[9],10 mm
same,diameter of the inhibition zone (DIZ),[10],12 mm
same,fractional inhibitory concentration index (FICI),[11],1.25
same,fractional inhibitory concentration index (FICI),[12],1.5
same,fractional inhibitory concentration index (FICI),[13],1.25
same,inhibition at 200 µg/mL,[42],100%
same,inhibition at 200 µg/mL,[43],100%
same,inhibition at 200 µg/mL,[44],100%
same,inhibition at 200 µg/mL,[45],100%
